The text below walks through data of PMC9260081, “Design, Synthesis, and Evaluation of Anticonvulsant Activities of New Triazolopyrimidine Derivatives” (Frontiers in Chemistry, 2022).

Where “and” joins values, the source holds several entries; their conditions need not be identical. Identical values can stand only once. Like-named read-outs stand apart in the source and are kept apart here. Marks after values point to notes of the source that are not given here.

In one data set the test system is BIC-induced seizures. Put plainly: Bicuculline (BIC)-induced seizure test. The data set is classed as in vivo. Particulars: BIC 5.4 mg/kg, compound 30 mg/kg, test time 0.5 h, percentage of animals, 10 mice. The procedure:
(§1) Male Kunming mice with weights from 18 to 22 g were used in all the pharmacological experiments. The mice were housed in the standard cages with 10 each, where a controlled temperature (25°C ± 2°C) with a 12 h light/dark cycle was maintained. All animals had free access to food and water. All experiments and procedures involving animals were carried out according to the Guide for the Care and Use of Laboratory Animals (National Academies Press, Washington, D.C., United States). Approval from the local medical ethical committee was obtained before the experiment.
In the BIC-induced seizure test, groups of 10 mice were administered with 30 mg/kg of test samples or vehicle. Then, 30 min later, the minimum dose of BIC (5.4 mg/kg) that could completely induce seizures for mice was subcutaneously injected into the test mice. The mice were placed into separate cages each, and the number of clonic seizures, tonic seizures, and mortality was recorded for 30 min.

Data set [1] is described as follows: Neurotoxicity screening (rotarod test). The data set is classed as in vivo. Particulars: male, Kunming, mouse, in vivo, ip; rotarod, mice; 95% confidence interval in brackets. The protocol:
as §1
(§2) The rotarod test was used to evaluate the neurotoxicity of the synthesized compounds. Before the formal experiments, mice were trained to climb on a rotating rod of diameter 3.2 cm with the rotation speed of 10 rpm. Test compounds in the three doses were intraperitoneally injected into the trained mice. […] The rough neurotoxic dose was obtained in which mice cannot maintain equilibrium on the rod for at least 1 min. The quantitative neurotoxic dose (TD50) of the test compounds was measured and calculated with the same method described in the MES test.
(In general: The rotarod test checks motor coordination on a turning rod.)

Another data set deals with PTZ-induced seizures. Nature of the data set: Subcutaneous pentylenetetrazole (PTZ) test. The data set is classed as in vivo, mice. Particulars: for ED50 / minimal effective dose: Mus musculus, mice; for ED50 / PI scPTZ, protective index (TD50/ED50) / minimal effective dose: ip; for ED50: 95% confidence interval in brackets, read-out: ED50 scPTZ; for PI scPTZ, protective index (TD50/ED50): male, Kunming, mouse, in vivo; for minimal effective dose: dosages 30, 100, 300 mg/kg, read-out: PTZ screening, minimum dose whereby bioactivity was demonstrated in half or more of the mice; for PTZ model, number of animals protected/number of animals tested: 30 mg/kg, 0.5 h. The protocol:
as §1
In the PTZ test, mice were subcutaneously administered with PTZ at the dose of 85 mg/kg. At this dose, mice can be elicited a threshold seizure characterized by an episode of clonic spasms and tonic spasms. After being treated with test compounds at doses of 300, 100, and 30 mg/kg, the mice were considered protected if a single episode of clonic spasms of more than 5 s duration was not obtained. The quantitative anticonvulsant activity (ED50) in the PTZ model was determined and calculated with the same method described in the MES test.

A further data set relates to MES-induced seizures. Nature of the data set: Maximal electroshock seizure (MES) test. In kind it is in vivo, mice. Particulars: for ED50 / minimal effective dose: Mus musculus, ip, mice; for ED50: 95% confidence interval in brackets, read-out: ED50 MES; for PI MES, protective index (TD50/ED50): TD50 rotarod / ED50 MES, mice i.p.; for minimal effective dose: dosages 30, 100, 300 mg/kg, read-out: MES screening, minimum dose whereby bioactivity was demonstrated in half or more of the mice; for MES model, number of animals protected/number of animals tested: 30 mg/kg, 0.5 h. The protocol:
as §1
In the MES test, mice were subjected to ear stimulation using a 0.2 s 60-Hz 50-mA alternating current to elicit seizures. Tonic hind limb extension was considered as the seizure occurring, and the vanishing of tonic hind limb extension indicates the protection against the MES-induced seizures. Mice were injected intraperitoneally with test compounds at doses of 300, 100, and 30 mg/kg to evaluate their general anticonvulsant activity. Half and 4 h intervals were chosen to test the anti-MES activity. […] A series of doses of the tested compounds were injected into the mice with 10 in one group.
(The maximal electroshock test induces tonic seizures with an electrical stimulus.)

The subject of another data set is 3-MP-induced seizures. Put plainly: 3-Mercaptopropionic acid (3-MP)-induced seizure test. In kind it is in vivo. Particulars: 3-MP 60 mg/kg; compound 30 mg/kg, test time 0.5 h; percentage of animals, 10 mice. The procedure:
as §1
In 3-MP–induced seizure test, groups of 10 mice were administered with 30 mg/kg of test samples or vehicle. After 30 min, the minimum dose of 3-MP (60 mg/kg) that could completely induce seizures for mice was intraperitoneally injected into the test mice. The mice were placed into separate cages each, and the number of clonic seizures, tonic seizures, and mortality was recorded for 30 min.

Data set [2] concerns ability to maintain equilibrium on rotating rod. Put plainly: Neurotoxicity screening (rotarod test). Particulars: i.p., dosages 30, 100, 300 mg/kg. The data set is classed as in vivo. The procedure: as §1, §2
The target in a further data set is GABAA BZD receptor. Put plainly: Radioligand receptor binding assay ([3H]-flumazenil competition). Particulars: rat brain membranes.
[3] abbreviates: pretreated with flumazenil (FMZ) 10 mg/kg 15 min before seizure induction.
[4] abbreviates: pretreated with thiosemicarbazide (TSC) 25 mg/kg/day for 3 days.

One may read the TD50 as the dose at which the toxic effect under study appears in half of the subjects. One may read the ED50 as the midpoint of the dose-response relation. Consider `NC(=O)N1c2ccccc2C=Cc2ccccc21` [Carbamazepine, reference compound], for which, in the data set with BIC-induced seizures, the “Clonic seizure (%)” value was found to be 100%, the “Lethality (%)” value is reported as 20** % and the “Tonic seizure (%)” value is on record as 0*** %. Further, in the data set with BIC-induced seizures (listed as carbamazepine), the “Lethality (%)” value is “significantly inhibited” and the “Tonic seizure (%)” value is reported as “significantly inhibited”. Besides, in data set [1], the TD50 at 30 min amounted to 44 mg/kg. Further, in the data set on PTZ-induced seizures, the 50% effective dose (ED50) was over 100 mg/kg and the “PI scPTZ, protective index (TD50/ED50)” value is listed as under 0.44. Moreover, in the data set with MES-induced seizures, the ED50 was 9.8 mg/kg and the “PI MES, protective index (TD50/ED50)” value is 4.5. Also, in the data set with 3-MP-induced seizures, the “Clonic seizure (%)” value was 100%, the “Lethality (%)” value is on record as 0** % and the “Tonic seizure (%)” value is reported as 0*** %.
The term melting point denotes the temperature, or range, at which the solid turns liquid. The compound `c1ccc(-c2ccnc3ncnn23)cc1` [Compound 3a, 7-Phenyl-[1,2,4]triazolo[1,5-a]pyrimidine] gave a melting point of 142 to 143 °C. Besides, the “NT screening (rotarod), minimum neurotoxic dose in half or more of the mice” value (“NT screening (rotarod)” below) in data set [2] (0.5 h after injection) is “— (A dash indicates the absence of anticonvulsant activity and neurotoxicity at the maximum dose administered (300 mg/kg))”. Further, the “NT screening (rotarod)” value in data set [2] (4 h after injection) is “— (A dash indicates the absence of anticonvulsant activity and neurotoxicity at the maximum dose administered (300 mg/kg))”. Also, the minimal effective dose in the data set on PTZ-induced seizures (0.5 h after injection) was determined as 100 mg/kg. Moreover, in the data set with PTZ-induced seizures (4 h after injection), the minimal effective dose was over 300 mg/kg. For the same compound, the minimal effective dose in the data set on MES-induced seizures (0.5 h after injection) came out at 300 mg/kg. Besides, in the data set with MES-induced seizures (4 h after injection), the minimal effective dose was over 300 mg/kg.
In turn, `Clc1ccccc1-c1ccnc2ncnn12` [Compound 3c, 7-(2-Chlorophenyl)-[1,2,4]triazolo[1,5-a]pyrimidine] registered a melting point of 148 to 149 °C. In addition, the “NT screening (rotarod)” value in data set [2] (0.5 h after injection) is “— (A dash indicates the absence of anticonvulsant activity and neurotoxicity at the maximum dose administered (300 mg/kg))”. The “NT screening (rotarod)” value in data set [2] (4 h after injection) is “— (A dash indicates the absence of anticonvulsant activity and neurotoxicity at the maximum dose administered (300 mg/kg))”. Further, the minimal effective dose in the data set with PTZ-induced seizures (0.5 h after injection) came to 100 mg/kg. Moreover, the minimal effective dose in the data set on PTZ-induced seizures (4 h after injection) is over 300 mg/kg. The minimal effective dose with MES-induced seizures (0.5 h after injection) was found to be 100 mg/kg. Moreover, in the data set with MES-induced seizures (4 h after injection), the minimal effective dose was over 300 mg/kg.
The IC50 is the concentration at which inhibition is half-maximal. Usually Ki stands for the equilibrium dissociation constant of an inhibitor or competing ligand from its target. Higher therefore signals weaker binding. Turning to `CCCCCCOc1ccc(-c2ccnc3ncnn23)cc1` [Compound 6d, 7-(4-(Hexyloxy)phenyl)-[1,2,4]triazolo[1,5-a]pyrimidine], the “Clonic seizure (%)” value in the data set on BIC-induced seizures is recorded as 10%. Besides, the “Lethality (%)” value in the data set on BIC-induced seizures is listed as 0%. In the data set on BIC-induced seizures, the “Tonic seizure (%)” value stood at 0%. The “NT screening (rotarod)” value is 300 mg/kg in data set [2] (0.5 h after injection); “— (A dash indicates the absence of anticonvulsant activity and neurotoxicity at the maximum dose administered (300 mg/kg))” in data set [2] (4 h after injection). In addition, in data set [1], the TD50 at 30 min amounted to 317 mg/kg. Moreover, the “PTZ model, number of animals protected/number of animals tested” value was “completely reversed and 0/5***” in the data set with PTZ-induced seizures (setting [3]); “completely reversed and 0/5***” in the data set with PTZ-induced seizures (setting [4]); “full protection and 5/5” in the data set on PTZ-induced seizures (pretreatment with saline). Further, the minimal effective dose in the data set with PTZ-induced seizures (0.5 h after injection) was 30 mg/kg; in the data set with PTZ-induced seizures (4 h after injection), over 300 mg/kg; in the data set on MES-induced seizures (0.5 h after injection), 30 mg/kg; in the data set on MES-induced seizures (4 h after injection) it was 100 mg/kg. Moreover, the ED50 with PTZ-induced seizures worked out at 14.1 mg/kg; with MES-induced seizures, 15.8 mg/kg. Further, in the data set on PTZ-induced seizures, the “PI scPTZ, protective index (TD50/ED50)” value was 22.5. The “MES model, number of animals protected/number of animals tested” value was “completely reversed and 0/5***” in the data set with MES-induced seizures (setting [3]); “completely reversed and 0/5***” in the data set on MES-induced seizures (setting [4]); “full protection and completely protected and 5/5 ^c and 5/5” in the data set on MES-induced seizures (pretreatment with saline). For the same compound, the “PI MES, protective index (TD50/ED50)” value in the data set on MES-induced seizures is listed as 20.1. Also, at GABAA BZD receptor (competition with 0.5 nM [3H]-flumazenil, 95% CI in brackets), the IC50 is 8.4 nM. This compound also registered a Ki on GABAA BZD receptor (competition with [3H]-flumazenil, Cheng–Prusoff) of 3.9 nM.
